The target in this assay is hMC2 receptor (Homo sapiens, UniProt Q01718). Put plainly: hMC2 membrane binding assay ([125I]ACTH (1-39) Tyr23, SPA). To be noted: crude hMC2R membranes from CRE-bla-CHO-K1 cells expressing hMC2 receptor and hMRAP; [125I]ACTH (1-39) Tyr23 0.2 nM; 1.5 hours at room temperature; read-out: MC2R binding potency. Further details: scale not given here. The method in brief:
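CRE-bla-CHO-K1 membranes co-expressing hMC2 receptor and hMRAP, preincubated with WGA PVT SPA beads in pH 7.4 HEPES/MgCl2/CaCl2/0.2% BSA buffer. Compounds (typically 0–10,000 nM final) compete with 0.2 nM [125I]ACTH(1-39) Tyr23 for 1.5 h at room temperature. SPA counts give Ki by non-linear regression.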

Chain of hMC2 receptor (Q01718 whole entry): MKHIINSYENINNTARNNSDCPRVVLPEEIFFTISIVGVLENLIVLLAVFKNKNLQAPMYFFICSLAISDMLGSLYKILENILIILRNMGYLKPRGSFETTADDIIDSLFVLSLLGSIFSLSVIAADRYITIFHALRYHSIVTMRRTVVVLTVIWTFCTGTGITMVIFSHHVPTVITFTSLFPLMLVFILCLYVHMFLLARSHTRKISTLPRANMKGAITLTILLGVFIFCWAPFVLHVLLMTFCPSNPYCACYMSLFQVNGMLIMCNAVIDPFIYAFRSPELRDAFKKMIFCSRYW
Chain of hMC2 receptor (Q8TCY5 whole entry partner): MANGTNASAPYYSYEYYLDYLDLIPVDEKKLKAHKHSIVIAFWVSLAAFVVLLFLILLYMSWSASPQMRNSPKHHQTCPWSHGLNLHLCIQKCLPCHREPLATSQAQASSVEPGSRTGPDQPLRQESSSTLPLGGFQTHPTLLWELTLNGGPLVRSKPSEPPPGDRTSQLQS

Turning to `CCOc1ncccc1-c1ccc(N2CCN(C(=O)c3ccc(Cl)cc3C(F)(F)F)C[C@H]2CC)c(C(=O)NC[C@H]2CCN2)c1` [Compound 1-102, N-{[(2R)-azetidin-2-yl]methyl}-2-[(2R)-4-[4-chloro-2-(trifluoromethyl)benzoyl]-2-ethylpiperazin-1-yl]-5-(2-ethoxypyridin-3-yl)benzamide], the Ki is under 10 nM.

Take `CCOc1ncccc1-c1ccc(N2CCN(C(=O)C3(C(F)(F)F)CCCC3)C[C@H]2CC)c(C(=O)NC2CN(C)C2)n1` [Compound 1-241, 2′-ethoxy-5-[(2R)-2-ethyl-4-[1-(trifluoromethyl)cyclopentanecarbonyl]piperazin-1-yl]-N-(1-methylazetidin-3-yl)-[2,3′-bipyridine]-6-carboxamide]: the Ki was under 10 nM.

As for `CCOc1ncccc1-c1ccc(N2CCN(C(=O)OC(c3ccccc3)C(C)(C)C)C[C@H]2CC)c(C(=O)N[C@@H]2CCN(C)C2)n1` (stereo partly drawn) [Compound 1-408, 2,2-dimethyl-1-phenylpropyl (3R)-4-(2′-ethoxy-6-{[(3R)-1-methylpyrrolidin-3-yl]carbamoyl}-[2,3′-bipyridin]-5-yl)-3-ethylpiperazine-1-carboxylate], the Ki was under 10 nM.

For `CCOc1ccccc1-c1ccc(N2CCN(C(=O)C3(C(F)(F)F)CCCC3)C[C@H]2CC)c(C(=O)NCC2CN(C)C2)n1` [Compound 1-340, 6-(2-ethoxyphenyl)-3-[(2R)-2-ethyl-4-[1-(trifluoromethyl)cyclopentanecarbonyl]piperazin-1-yl]-N-[(1-methylazetidin-3-yl)methyl]pyridine-2-carboxamide], the Ki is under 10 nM.
